The results in this text go back to patent publication US8575338B2, “Pyrimidine, pyridine and triazine derivatives as maxi-K channel openers” (Mitsubishi Tanabe Pharma Corporation, priority 2008, dated 2013).

One assay has as its target T1, Cox-1 (Rattus norvegicus, UniProt Q63921).
T1 construct: from tissue; host or cells: rat whole blood ('ratWB')
T1 sequence (Q63921 27-602): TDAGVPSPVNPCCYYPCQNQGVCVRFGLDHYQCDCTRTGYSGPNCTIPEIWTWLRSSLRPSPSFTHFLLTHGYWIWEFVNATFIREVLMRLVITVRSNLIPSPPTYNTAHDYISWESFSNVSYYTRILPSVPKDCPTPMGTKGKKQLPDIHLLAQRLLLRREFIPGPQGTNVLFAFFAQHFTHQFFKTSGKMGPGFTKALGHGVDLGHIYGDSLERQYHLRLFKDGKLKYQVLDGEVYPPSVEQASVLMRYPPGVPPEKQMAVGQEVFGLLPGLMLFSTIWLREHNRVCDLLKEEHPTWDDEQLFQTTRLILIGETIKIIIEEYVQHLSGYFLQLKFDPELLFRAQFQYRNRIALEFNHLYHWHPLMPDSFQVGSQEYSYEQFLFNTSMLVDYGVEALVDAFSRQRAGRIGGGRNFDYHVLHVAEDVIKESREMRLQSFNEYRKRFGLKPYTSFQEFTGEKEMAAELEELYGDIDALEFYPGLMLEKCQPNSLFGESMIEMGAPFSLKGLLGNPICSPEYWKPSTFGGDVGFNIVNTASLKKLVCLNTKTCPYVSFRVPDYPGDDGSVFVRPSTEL
Briefly: COXs inhibition, rat whole blood Cox-1. The format is cell-based. Conditions: read-out: ratWB Cox-1 IC50. The procedure:
Methods for Testing Compounds on Inhibiting COXs
Activities of inhibiting COXs can be investigated by the manner described in Proc. Natl. Acad. Sci. USA 96, 7563, […].
As a result, compounds of the present invention are less or no potent COXs inhibitors. A result of COXs inhibition of the selected compounds (Example Nos. 1, 3, 12, 188, 474, 497, 507, 513, 527, 533, 562, and 638) are: ratWB Cox-1 IC50>30 μM and ratWB IC50>30 μM.

For a further assay, the target named is T2, human BKαβ1 channels (Homo sapiens, UniProt Q12791).
T2 construct: expressed in transfected cells; host or cells: CHO cells (G418 and hygromycin selection)
Briefly: BK current in CHO cells expressing human BKαβ1 (PatchXpress whole-cell patch clamp), EC100. The class given is cell-based. Conditions: drug concentration causing 100% increase of BK current. (In patch-clamp work, channel activity is measured electrically.)

For assay [1], the system named is rhythmic bladder contractions. As to the kind of experiment: Inhibitory effect on the rhythmic bladder contractions in anesthetized rats. The format is in vivo, rat. Conditions: anesthetized rats; 10 mg/kg; intravenous. The text has this: Inhibitory Effect on the Rhythmic Bladder Contractions in Anesthetized Rats
Female Sprague-Dawley rats (9 to 12 weeks old weighing between 200 to 300 g) were anethethized with urethane (subcutaneously administered with a dose of 1.2 g/kg). Both ureters were cannulated to excrete urine. A cannula was inserted into the bladder via the urethra and secured with a ligature around the urethral opening and connected to a three-way stopcock. The ends were connected to a pressure transducer for measurement of bladder pressure and to a infusion pump for intravesical infusion of saline. A cannula was inserted in the femoral vein for intravenous (i.v.) drug administration. Following a over 20 minute post-surgical stabilization period and emptying of urine in the bladder, saline was infused into the bladder (50 μl/min) to evoke the micturition reflex. After the rhythmic bladder contractions had occurred, the saline infusion rate into the bladder was changed to 5 μl/min in order to maintain these contractions. Compounds were administered after stable rhythmic bladder contraction was obtained over 15 minutes. All compounds were dissolved in saline containing 10% dimethyl acetamide for intravenous administration (1 ml/kg). When iberiotoxin, a large conductance calcium-activated K channel blocker (0.15 mg/kg, i.v.) was administered for comparison purposes, it was administered 5 minutes before drug administration.
The frequencies (contractions per minute) of rhythmic bladder contractions were calculated for 10 minutes before and after drug administration. The efficacy of compounds expressed as percent of inhibition in frequency, which calculated from the following formula: (1−frequency after dosing/frequency before dosing)×100(%)

T2 sequence (Q12791 whole entry): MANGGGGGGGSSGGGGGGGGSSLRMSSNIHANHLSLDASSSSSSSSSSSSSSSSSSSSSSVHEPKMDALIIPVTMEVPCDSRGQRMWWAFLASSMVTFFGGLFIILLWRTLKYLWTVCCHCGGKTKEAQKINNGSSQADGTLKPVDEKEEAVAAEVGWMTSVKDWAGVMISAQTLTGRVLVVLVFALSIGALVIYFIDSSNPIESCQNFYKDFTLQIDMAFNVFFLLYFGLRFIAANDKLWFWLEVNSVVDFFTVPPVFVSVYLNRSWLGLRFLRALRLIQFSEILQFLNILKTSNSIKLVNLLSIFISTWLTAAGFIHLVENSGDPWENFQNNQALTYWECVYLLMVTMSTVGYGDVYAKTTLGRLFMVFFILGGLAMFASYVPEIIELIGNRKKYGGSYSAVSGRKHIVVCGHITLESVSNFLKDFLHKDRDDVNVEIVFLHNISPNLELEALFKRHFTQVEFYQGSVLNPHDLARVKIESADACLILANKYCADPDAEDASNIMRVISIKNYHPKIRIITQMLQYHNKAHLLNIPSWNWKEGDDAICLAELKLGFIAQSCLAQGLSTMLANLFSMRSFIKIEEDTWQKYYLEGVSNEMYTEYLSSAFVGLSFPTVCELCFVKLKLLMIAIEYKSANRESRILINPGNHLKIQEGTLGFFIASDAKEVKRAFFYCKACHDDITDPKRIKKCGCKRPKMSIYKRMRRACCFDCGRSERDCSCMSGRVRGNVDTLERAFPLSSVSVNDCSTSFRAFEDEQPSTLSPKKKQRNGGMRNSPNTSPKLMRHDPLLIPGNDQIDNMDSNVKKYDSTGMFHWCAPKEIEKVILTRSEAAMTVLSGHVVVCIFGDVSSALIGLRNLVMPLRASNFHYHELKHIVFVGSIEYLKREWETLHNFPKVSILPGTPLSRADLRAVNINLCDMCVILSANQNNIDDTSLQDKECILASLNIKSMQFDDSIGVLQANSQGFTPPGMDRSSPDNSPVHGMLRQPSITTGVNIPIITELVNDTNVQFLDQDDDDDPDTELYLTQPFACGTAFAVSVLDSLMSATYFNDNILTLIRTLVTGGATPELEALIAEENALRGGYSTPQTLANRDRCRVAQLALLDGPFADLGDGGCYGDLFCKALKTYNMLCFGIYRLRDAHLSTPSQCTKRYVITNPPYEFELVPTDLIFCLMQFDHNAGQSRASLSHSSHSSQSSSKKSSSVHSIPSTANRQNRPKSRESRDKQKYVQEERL
T2 sequence (Q16558 whole entry partner): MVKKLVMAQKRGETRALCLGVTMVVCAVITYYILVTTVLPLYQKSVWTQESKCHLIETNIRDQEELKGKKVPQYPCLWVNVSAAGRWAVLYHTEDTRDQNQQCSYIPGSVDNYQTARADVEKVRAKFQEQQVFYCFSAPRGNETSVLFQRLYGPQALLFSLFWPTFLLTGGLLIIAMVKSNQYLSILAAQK

By IC50 is commonly meant the concentration needed to halve the response being measured. As to `CC(C)(Oc1cc(N2CCCCC2)nc(-c2ccc(Cl)c(F)c2)n1)C(=O)O` [Example 1], the IC50 on Cox-1 is above 30 µM. With `O=C(O)COc1cc(N2CCc3ccccc32)nc(-c2ccc(Cl)c(F)c2)n1` [Example 3], the half-maximal inhibitory concentration (IC50) on Cox-1 was above 30 µM. For the compound `O=C(O)COc1cc(-c2ccc(Cl)c(F)c2)nc(-c2ccc(F)cc2)n1` [Example 188], on Cox-1, the 50% inhibitory concentration (IC50) was above 30 µM. Turning to `COCc1ccc(-c2cc(OC3(C(=O)[O-])CC3)nc(-c3ccc(Cl)c(F)c3)n2)cc1.[Na+]` [Example 527], the EC100 on human BKαβ1 channels was found to be 0.37 µM. In assay [1], the “percent of inhibition in frequency of rhythmic bladder contractions” value (“percent of inhibition” for short) was “A (A: inhibition(%) > 50)”.

In turn, `COc1ccc(-c2cc(OC3(C(=O)[O-])CC3)nc(-c3ccc(Cl)c(F)c3)n2)cn1.[Na+]` [Example 534] gave an EC100 at human BKαβ1 channels of 0.36 µM. In addition, the “percent of inhibition” value in assay [1] is listed as “B (B: 50 > inhibition(%) > 30)”. Taken in the same sequence, the figures for `COc1ccccc1-c1cc(OC2(C(=O)[O-])CCCC2)nc(-c2ccc(Cl)c(F)c2)n1.[Na+]` [Example 565] were 0.28 µM and “B (B: 50 > inhibition(%) > 30)”.

For `COCCOc1cc(F)ccc1-c1cc(OC2(C(=O)[O-])CC2)nc(-c2ccc(F)c(F)c2)n1.[Na+]` [Example 619], at human BKαβ1 channels, the EC100 is 0.49 µM. Further, the “percent of inhibition” value in assay [1] is reported as “B (B: 50 > inhibition(%) > 30)”.

Take `CCOc1cc(-c2nc(-c3ccc(F)cc3)nc(OC3(C(=O)[O-])CC3)c2C)ccc1F.[Na+]` [Example 977]: the EC100 on human BKαβ1 channels was 0.13 µM. Also, the “percent of inhibition” value in assay [1] was “B (B: 50 > inhibition(%) > 30)”. On the same counts, the results for `Cc1ccc(Cl)cc1-c1nc(OC2(C(=O)[O-])CC2)nc(-c2ccc(Cl)cc2)n1.[Na+]` [Example 1091] are 0.03 µM and “B (B: 50 > inhibition(%) > 30)”.

In turn, `O=C([O-])C1(Oc2cc(N3CCc4cc(F)ccc4C3)nc(-c3ccc(F)cc3)n2)CC1.[Na+]` [Example 1110] yielded an EC100 on human BKαβ1 channels of 0.3 µM. Besides, in assay [1], the “percent of inhibition” value is listed as “B (B: 50 > inhibition(%) > 30)”. Consider `CCO[C@H]1CCCN(c2nc(OC3(C(=O)[O-])CC3)cc(-c3cc(Cl)c(Cl)s3)n2)C1.[Na+]` [Example 1227], for which the EC100 at human BKαβ1 channels amounted to 0.37 µM. For the same compound, the “percent of inhibition” value in assay [1] is reported as “B (B: 50 > inhibition(%) > 30)”.
